System: Chlorella sp.
Test: Algal efficacy testing of dry paint film coupons (modified ASTM 5589, 6-well plates)
Type: cell-based, Chlorella sp. ATCC 7516
Conditions: for Total conc, ppm (concentration giving pass level ≥ 75% inhibition): total active ingredient in acrylic/silicone paint, dry film coupon, used as minimum inhibitory concentration for SI
Description: These paints were then diluted with a biocide free acrylic/silicone based paint and mixed to prepare targeted concentrations of biocide combinations for the testing. The total biocides concentrations obtained were 125, 250, 500, 1000, 2000 and 5000 ppm. After biocides addition or dilution, the paints were mixed 90 seconds with the horse power shaker (AXEL 75M3372/Agitateur SO-10MI) until uniformity was achieved. […] After one day, the paints were applied to Schleicher & Schuell filter paper at 280 μm wet film thickness and dried for 3 days at room temperature avoiding direct exposure to sunlight. Square discs (1.8 cm×1.8 cm) were cut out from each panel and were used as the substrate for algal efficacy tests. This sample size allowed for an agar border when the sample disc was placed into the well of the test plate.
Algal efficacy was tested according to modified ASTM 5589 which is a standard accelerated test method for determining resistance of various coatings (including paints) to algal defacement. To accommodate for high-throughput screening, this method was scaled down from petri plates to 6-well plates. Bold Modified Basal Freshwater Nutrient Solution was used as growth medium for the algal culture and Bold's agar was used for the efficacy testing. A single coupon was placed with a pair of sterile forceps at the center of the agar plug (on top) with the painted surface facing upwards. The algal inoculum was prepared by diluting an exponentially growing culture of Chlorella sp. to 1×10^6 cfu/ml.
Each well that contains a tested coupon was inoculated with 1750 μl of algal suspension (1×10^6 cfu/ml) making sure that the whole surface (paint film as well as the agar surrounding it) was evenly covered. The plates were incubated at room temp (21° C.-25° C.) with cyclic exposure to 14 hours fluorescent light followed by 10 hours darkness, for a period of three weeks.
At the end of the incubation period the samples were scored for percent inhibition regarding color intensity compared to the blank sample
The SI is calculated based on F. C. Kull et.
SI=Qa/QA+Qb/QB • Qa=the concentration of Antimicrobial A in the blend • QA=the concentration of Antimicrobial A as the only biocide • Qb=the concentration of Antimicrobial B in the blend • QB=the concentration of Antimicrobial B as the only antimicrobial
SI value of <1 in the formula indicates a synergism of the blended biocides exists.
The minimal targeted inhibition was set at 75%, meaning a coupon with at least 75% algal growth inhibition was considered as a pass.

SMILES	inhibition at 10000 ppm (504 h, total conc 10000 ppm in paint, three weeks, color intensity vs blank) [%]	Total conc, ppm (concentration giving pass level ≥ 75% inhibition) (three weeks)	inhibition at 1000 ppm (504 h) [%]
c1ccc2[nH]c(-c3cscn3)nc2c1 [Thiabendazole, 4-(1H-1,3-benzodiazol-2-yl)-1,3-thiazole]	75	10000 ppm	–
O=c1[nH]c2c(c(=O)n1C1CCCCC1)CCC2 [Lenacil, 3-Cyclohexyl-6,7-dihydro-1H-cyclopentapyrimidine-2,4-(3H,5H)-dione]	–	1,000 ppm	90
